Results as given in patent publication US20100280987A1, “METHODS AND GENE EXPRESSION SIGNATURE FOR ASSESSING RAS PATHWAY ACTIVITY” (priority 2009, published 2010).
“Also recorded” adds a separate entry of the source.

What was measured:
[1] = test system: p53 loss of function and KRas mutant lung tumors (7450 KP-model); assay: tumor progression in 7450 KP-model mice; format: in vivo; conditions: 7450 KP mice, after 4 weeks of treatment (data not shown)
[2] = blood concentration of AZD6244 post-dose in mice; format: in vivo, CD-1 nude mice
[3] = test system: RAS pathway signature; assay: RAS pathway signature score in tumors after treatment in vivo; conditions: 7450 KP-model mice, 150 mpk, three doses 10 hours apart, tumors 4 hours post last dose; 150 mg/kg
Method: As a first step in the analysis of the RAS signatures, we assessed the coherency of the signatures across four cell line panels from lung, colon, breast, and lymphoid malignancies. The purpose of coherence analysis is to show the statistical significance of the difference between the “Up” and “Down” arms of the signature in a new dataset. Two correlation coefficients were calculated for all of the genes in both the Up and Down arms. First, the correlation between each gene in the Up arm and the average of all genes in the Up arm is calculated. Second, the anticorrelation between each gene in the Up arm and the average of all genes in the Down arm is calculated. This is repeated for genes in the Down arm. […] A Fisher exact test is calculated for correlation within and between arms of the signature to assess the significance of signature coherence in a new dataset. […] RAS pathway activity (or regulation) is summarized into a RAS signature score, which is calculated as: (mean expression of Up genes (Table 2a))—(mean expression of Down genes (Table 2b)). […]
The 7450 KP mice were treated with a small molecule MEK inhibitor, AZD6244 (Ohren et al., 2004, Nat. Struct. Mol. Biol. 11:119201197). […] RAS signature pathway signatures scores were calculated as previously described for each time point and plotted (FIG. 18).

[4] = test system: MEK1 and MEK2; conditions: purified enzyme, read-out: in vitro IC50 against purified enzyme; cited from earlier work

With Cn1cnc2c(F)c(Nc3ccc(Br)cc3Cl)c(C(=O)NOCCO)cc21 [AZD6244] the “tumor progression compared vehicle” value [1] was “significantly halted tumor progression”, the clearance post-dose ([2]; CD-1 nude mice) was “cleared quickly” and the half-life in vivo ([2]; in vivo) was “short half-life”. The “blood concentration after the peak” value ([2]; mice (CD-1 nude mice), blood) was “decreased rapidly”, the “RAS pathway signature score in vivo at 4 hours post-dose” value [3] was “down regulated; also recorded: down-regulated” and the IC50 [4] was 10 to 14 nM.
